Data set [1] deals with Lewis Lung Carcinoma cells. Kind of data set: Lewis Lung Carcinoma efficacy study (tumor volume over time). Format: in vivo. The settings on record: single agent, dosed orally twice daily at 50, 100 or 200 mg/kg; C57BL/6 mice implanted with Lewis Lung Carcinoma cells; relative to control. As for the experimental part:
Female C57.Bl/6 mice (n=40) were implanted subcutaneously with 1×10^6 Lewis Lung Carcinoma cells suspended in PBS. The day following implantation, mice were randomized into 4 groups of n=10 mice to receive the following treatments dosed orally twice daily until study end: 1) Vehicle (water); 2) Compound 10 at 50 mg/kg formulated in water; 3) Compound 10 at 100 mg/kg formulated in water; or 4) Compound 10 at 200 mg/kg formulated in water. Tumors were measured three times per week with digital calipers and tumor volumes calculated with the following formula: tumor volume (mm^3)=(a×b^2/2) where ‘b’ is the smallest diameter and ‘a’ is the largest perpendicular diameter. ***P-value <0.001, ****P-value <0.0001 (Two-sided T-test).

The nature of data set [2]: Moisture sorption/desorption isotherm (TGA study, humidity uptake). It counts as physicochemical. As for the experimental part:
In the TGA study, a weighted amount of compound 10e was treated with increasing amounts of water vapor (increased humidity) and the impact of humidity on the weight of the sample was evaluated.

Data set [3] is described as follows: Hydrolysis of the ethanolate in water (NMR in D2O, HPLC-MS). The settings on record: hydrolysis to the open free boronic acid form, compound 10. Format: physicochemical. As for the experimental part:
The rapid conversion of compound 10e to compound 10 in water was confirmed by the similarity of a spectrum of 10e in D2O to a spectrum of 10 in D2O. When a sample of compound 10e was dissolved in D2O and the spectra immediately recorded (elapsed time <5 minutes), the spectra observed is identical to a spectra of compound 10 (the free boronic acid) plus ethanol (1:1 ratio). The spectrum of 10e in D2O was the same at 5 minutes and one hour after sample preparation, indicating the transformation was rapid and complete after a few minutes.
The NMR spectra (D2O) labeled A is compound 10 (free base) prepared from 11 as described in Example 2. The NMR spectra (D2O) labeled B is an analytical sample of compound 10e prepared as described above. The NMR spectra (D2O) labeled C is the sample from spectra B that has been lyophilized and redissolved in D2O.
Upon dissolution in 1:1 water/acetonitrile and immediate injection into an HPLC system, only a single peak is observed. The mass of this peak is consistent with compound 10.

“Also recorded” adds a separate entry of the source.

On to `C[C@H](N)C(=O)N1C[C@H](CCCB(O)O)[C@](N)(C(=O)O)C1` [Compound 10], for which the “tumor growth (tumor volume over time)” value in data set [1] is “slows tumor growth relative to control”. Also, in data set [2], the “hysteresis of sorption and desorption isotherms” value is reported as “minimal hysteresis”. Besides, the hygroscopicity entry in data set [2] (as humidity is increased) was “absorbs increasing amounts of water as the humidity increases; also recorded: hygroscopic”. For the same compound, the observed moisture uptake entry in data set [2] (at 90% relative humidity (RH)) is reported as “over 70%”.

For `CCOB1CCC[C@H]2CN(C(=O)[C@H](C)N)C[C@@]2(N)C(=O)O1` [Compound 10e, (6aS,9aR)-8-(L-alanyl)-9a-amino-3-ethoxyoctahydro-[1,2]oxaborocino[6,7-c]pyrrol-1(3H)-one], the “stability under physiological conditions or any other aqueous conditions” value in data set [3] is “rapidly hydrolyzes”.

(Values after patent US12054501B2, “Compositions and methods for inhibiting arginase activity” (Precision Pharmaceuticals Inc., priority 2016, dated 2024).)
